Results: ChEMBL document CHEMBL6134827, “The discovery of novel antimicrobial peptides against drug-resistant bacteria based on fragments fusion strategy” (Eur J Med Chem, 2025)
Calls of active or inactive are those of the source. No cut-off for these calls is given here. Starred links: 1 amine or outer side, 2 acyl side, 3 side chain; linkers in the order of their positions; H or OH if unused. Positions of bridges follow the written chain, without caps; N, C: chain ends. Non-standard residues stand in square brackets, D forms with d. Residues, ends and D or L forms follow the SMILES beside them. *: point of attachment. εLys = N[C@@H](CCCCN[*:1])C(=O)[*:2]; X1 = CC[C@H](C)CCCCC(=O)*; Dab = NCC[C@H](N)C(=O)O

Legend:
[1] = system: Staphylococcus aureus; experiment: Antimicrobial activity against multidrug resistant Staphylococcus aureus assessed as inhibition of visible microbial growth incubated for 18 hrs by broth microdilution method; type: functional
[2] = system: Staphylococcus aureus; experiment: Drug resistance, ratio of MIC for Staphylococcus aureus ATCC 29213 after 4 passages to MIC for Staphylococcus aureus ATCC 29213 after first exposure; type: functional
[3] = system: Staphylococcus aureus; experiment: Antimicrobial activity against Staphylococcus aureus ATCC 29213 assessed as inhibition of visible microbial growth incubated for 18 hrs by broth microdilution method; type: functional
[4] = system: Staphylococcus aureus; experiment: Drug resistance, ratio of MIC for multidrug resistant Staphylococcus aureus after 10 passages to MIC for multidrug resistant Staphylococcus aureus after first exposure; type: functional
[5] = system: Escherichia coli; experiment: Antimicrobial activity against Escherichia coli ATCC 25922 assessed as inhibition of visible microbial growth incubated for 18 hrs by broth microdilution method; type: functional
[6] = Cytotoxicity against human BEAS-2B cells assessed as inhibition of cell growth measured after 24 hrs by CCK-8 assay; type: toxicity, cell-based
[7] = Cytotoxicity against human BEAS-2B cells assessed as survival rate at 64 microg/ml measured after 24 hrs by CCK-8 assay relative to control; type: toxicity, cell-based; conditions: at 64 µg/mL, read-out: Survival
[8] = system: Acinetobacter baumannii; experiment: Antimicrobial activity against multidrug resistant Acinetobacter baumannii assessed as inhibition of visible microbial growth incubated for 18 hrs by broth microdilution method; type: functional
[9] = system: Pseudomonas aeruginosa; experiment: Antimicrobial activity against multidrug resistant Pseudomonas aeruginosa assessed as inhibition of visible microbial growth incubated for 18 hrs by broth microdilution method; type: functional
[10] = Hemolytic activity in human red blood cell assessed as hemolysis at 128 microg/ml measured after 1 hrs by microplate reader assay relative to control; type: toxicity, cell-based, Erythrocyte; conditions: red blood cells, at 128 µg/mL, read-out: Activity
[11] = Cytotoxicity against HEK293T cells assessed as survival rate at 64 microg/ml measured after 24 hrs by CCK-8 assay relative to control; type: toxicity, cell-based, HEK-293T; conditions: human, at 64 µg/mL, read-out: Survival
[12] = system: Escherichia coli; experiment: Antimicrobial activity against multidrug resistant Escherichia coli assessed as inhibition of visible microbial growth incubated for 18 hrs by broth microdilution method; type: functional
[13] = Cytotoxicity against human LO2 cells assessed as survival rate at 64 microg/ml measured after 24 hrs by CCK-8 assay relative to control; type: toxicity, cell-based, L02; conditions: at 64 µg/mL, read-out: Survival
[14] = system: BEAS-2B; experiment: Cytotoxicity against human BEAS-2B cells assessed as reduction in cell viability at 2 to 64 microg/mL measured after 24 hrs by CCK-8 assay; type: toxicity, cell-based; conditions: dose 2-64 µg/ml
[15] = system: L02; experiment: Cytotoxicity against human LO2 cells assessed as reduction in cell viability at 2 to 64 microg/mL measured after 24 hrs by CCK-8 assay; type: toxicity, cell-based; conditions: l02, 24 h, dose 2-64 µg/ml
[16] = system: Pseudomonas aeruginosa; experiment: Drug resistance, ratio of MIC for multidrug resistant Pseudomonas aeruginosa after 14 passages to MIC for multidrug resistant Pseudomonas aeruginosa after first exposure; type: functional
[17] = system: Bacillus subtilis; experiment: Antibacterial activity against Bacillus subtilis; type: functional
[18] = system: Staphylococcus aureus; experiment: Antibacterial activity against multidrug resistant Staphylococcus aureus assessed as reduction in bacterial growth at 32 microg/mL measured after 1.5 hrs by bactericidal kinetic assay; type: functional, organism-based; conditions: dose 32.0 µg/ml
[19] = system: Cell membrane; experiment: Induction of outer cell membrane permeabilization in multidrug resistant Pseudomonas aeruginosa assessed as increase in fluorescence intensity at >16 microg/ml measured for 12 mins by NPN uptake assay; type: subcellular; conditions: dose > 16.0 µg/ml
[20] = system: Staphylococcus aureus; experiment: Drug resistance, ratio of MIC for multidrug resistant Staphylococcus aureus after 4 passages to MIC for multidrug resistant Staphylococcus aureus after first exposure; type: functional
[21] = Stability in 25% human plasma assessed as compound remaining measured after 24 hrs by RP-HPLC analysis; type: ADME, cell-free; conditions: 25% plasma, read-out: Stability
[22] = system: Cell membrane; experiment: Induction of outer cell membrane permeabilization in multidrug resistant Pseudomonas aeruginosa assessed as increase in fluorescence intensity measured for 12 mins by NPN uptake assay; type: subcellular; conditions: dose 4-32 µg/ml
[23] = system: Pseudomonas aeruginosa; experiment: Antibacterial activity against multidrug resistant Pseudomonas aeruginosa assessed as reduction in bacterial growth at 32 microg/mL measured within 30 min by bactericidal kinetic assay relative to control; type: functional; parameters: scale not given: the % may be the effect or the level left; conditions: dose 32 µg/ml, 0.5 h
[24] = system: Cell membrane; experiment: Induction of cytoplasmic membrane depolarization in multidrug resistant Pseudomonas aeruginosa assessed as increase in fluorescence intensity measured for 12 min by DISC3-5 dye based fluorescence analysis; type: subcellular; conditions: dose 4-32 µg/ml
[25] = system: Pseudomonas aeruginosa; experiment: Drug resistance, ratio of MIC for multidrug resistant Pseudomonas aeruginosa after 5 passages to MIC for multidrug resistant Pseudomonas aeruginosa after first exposure; type: functional
[26] = system: Staphylococcus aureus; experiment: Drug resistance, ratio of MIC for Staphylococcus aureus ATCC 29213 after 14 passages to MIC for Staphylococcus aureus ATCC 29213 after first exposure; type: functional
[27] = Nephrotoxicity in female C57BL/6 mouse assessed as increase in BUN level at 15 mg/kg, ip administered daily and measured for 5 days; type: toxicity, organism-based; conditions: in vivo, 120 h, time 5 day
[28] = Toxicity in female C57BL/6 mouse assessed as histopathological change in kidney at 20 mg/kg, ip administered daily and measured for 5 days by H and E staining based analysis; type: organism-based; conditions: in vivo, 120 h, time 5 day
[29] = Nephrotoxicity in female C57BL/6 mouse assessed as presence of flocculents in lumen at 20 mg/kg, ip administered daily and measured for 5 days by H and E staining based analysis; type: toxicity, organism-based; conditions: in vivo, 120 h, time 5 day
[30] = Nephrotoxicity in female C57BL/6 mouse assessed as tubular dilation at 20 mg/kg, ip administered daily and measured for 5 days by H and E staining based analysis; type: toxicity, organism-based; conditions: in vivo, 120 h, time 5 day

## CN[C@H](CC(C)C)C(=O)N[C@H]1C(=O)N[C@@H](CC(N)=O)C(=O)N[C@H]2C(=O)N[C@H]3C(=O)N[C@H](C(=O)N[C@H](C(=O)O)c4cc(O)cc(O)c4-c4cc3ccc4O)[C@H](O)c3ccc(c(Cl)c3)Oc3cc2cc(c3O[C@@H]2O[C@H](CO)[C@@H](O)[C@H](O)[C@H]2O[C@H]2C[C@](C)(N)[C@H](O)[C@H](C)O2)Oc2ccc(cc2Cl)[C@H]1O [VANCOMYCIN]
[1]
  MIC: 0.7 µM
[2]
  Ratio: 4
[3]
  MIC: 0.7 µM
[4]
  Ratio: 2

## CC(C)C[C@H](NC(=O)CN)C(=O)N[C@@H](CCN)C(=O)N[C@@H](CCN)C(=O)N[C@@H](Cc1c[nH]c2ccccc12)C(=O)N[C@@H](CC(C)C)C(=O)N[C@@H](CCN)C(=O)N[C@@H](CCN)C(=O)N[C@@H](Cc1ccccc1)C(=O)N[C@@H](CCN)C(=O)N[C@@H](CCN)C(=O)N[C@@H](Cc1ccccc1)C(=O)N[C@@H](Cc1c[nH]c2ccccc12)C(=O)O (H-GL[Dab][Dab]WL[Dab][Dab]F[Dab][Dab]FW-OH)
[5]
  MIC: 5.1 µM
[1]
  MIC: 5.1 µM
[6]
  CC50 at 24 h: > 64 µg/mL
[7]
  viability at 24 h, 64 µg/mL: > 80%
[8]
  MIC: 5.1 µM
[9]
  MIC: 10.2 µM
[10]
  hemolysis at 1 h, 128 µg/mL: < 10%
[3]
  MIC: 5.1 µM
[11]
  viability at 24 h, 64 µg/mL: > 80%
[12]
  MIC: 10.2 µM
[13]
  viability at 24 h, 64 µg/mL: > 80%

## H-GLRKWLRKFKKFW-OH
[14]
  Activity: Toxic
[5]
  MIC: 8.9 µM
[1]
  MIC: 17.8 µM
[6]
  CC50 at 24 h: 38.4 µg/mL
[15]
  Activity: Toxic
[8]
  MIC: 4.5 µM
[9]
  MIC: 4.5 µM
[10]
  hemolysis at 1 h, 128 µg/mL: < 10%
[3]
  MIC: 17.8 µM
[12]
  MIC: 4.5 µM

## CC(C)CCCCC(=O)N[C@@H](CCN)C(=O)N[C@H](C(=O)N[C@@H](CCN)C(=O)N[C@H]1CCNC(=O)[C@H]([C@@H](C)O)NC(=O)[C@H](CCN)NC(=O)[C@H](CCN)NC(=O)[C@H](CC(C)C)NC(=O)[C@@H](Cc2ccccc2)NC(=O)[C@H](CCN)NC1=O)[C@@H](C)O.CC[C@H](C)CCCCC(=O)N[C@@H](CCN)C(=O)N[C@H](C(=O)N[C@@H](CCN)C(=O)N[C@H]1CCNC(=O)[C@H]([C@@H](C)O)NC(=O)[C@H](CCN)NC(=O)[C@H](CCN)NC(=O)[C@H](CC(C)C)NC(=O)[C@@H](Cc2ccccc2)NC(=O)[C@H](CCN)NC1=O)[C@@H](C)O (X1-[Dab]T[Dab][Dab][Dab][dF]L[Dab][Dab]T; lactam 4-C) [listing 1 of 2 here]
[5]
  MIC: 0.4 µM
[16]
  Ratio: 4
[8]
  MIC: 0.8 µM
[9]
  MIC: 2 µg/mL
[12]
  MIC: 0.8 µM

## H-GLRKRLRKFFNKIKF-OH
[5]
  MIC: 8.2 µM
[1]
  MIC: 65.7 µM
[8]
  MIC: 16.4 µM
[9]
  MIC: 16.4 µM
[17]
  MIC: > 3 µM
[3]
  MIC: 32.8 µM
[12]
  MIC: 4.1 µM

## H-GIGKFLKKAKKFGKAFVKILKK-OH
[18]
  Activity: Not active; Bacterial Regrowth Observed
[19]
  Activity: Active
[14]
  Activity: Toxic
[5]
  MIC: 3.2 µM
[1]
  MIC: 12.9 µM
[2]
  Ratio: 8
[6]
  CC50 at 24 h: 45.9 µg/mL
[15]
  Activity: Toxic
[16]
  Ratio: 4
[20]
  Ratio: 8
[8]
  MIC: 1.6 µM
[9]
  MIC: 3.2 µM
[10]
  hemolysis at 1 h, 128 µg/mL: < 10%
[3]
  MIC: 12.9 µM
[12]
  MIC: 3.2 µM
[21]
  remaining at 24 h: 34%
[22]
  Activity: Dose-dependent-effect
[23]
  Activity: 100%
[24]
  Activity: Dose-dependent-effect

## C[C@H]1COc2c(N3CCN(C)CC3)c(F)cc3c(=O)c(C(=O)O)cn1c23 [LEVOFLOXACIN ANHYDROUS]
[25]
  Ratio: 16
[26]
  Ratio: 512
[20]
  Ratio: 4

## CC(C)CCCCC(=O)N[C@@H](CCN)C(=O)N[C@H](C(=O)N[C@@H](CCN)C(=O)N[C@H]1CCNC(=O)[C@H]([C@@H](C)O)NC(=O)[C@H](CCN)NC(=O)[C@H](CCN)NC(=O)[C@H](CC(C)C)NC(=O)[C@@H](Cc2ccccc2)NC(=O)[C@H](CCN)NC1=O)[C@@H](C)O.CC[C@H](C)CCCCC(=O)N[C@@H](CCN)C(=O)N[C@H](C(=O)N[C@@H](CCN)C(=O)N[C@H]1CCNC(=O)[C@H]([C@@H](C)O)NC(=O)[C@H](CCN)NC(=O)[C@H](CCN)NC(=O)[C@H](CC(C)C)NC(=O)[C@@H](Cc2ccccc2)NC(=O)[C@H](CCN)NC1=O)[C@@H](C)O (X1-[Dab]T[Dab][Dab][Dab][dF]L[Dab][Dab]T; lactam 4-C) [listing 2 of 2 here]
[27]
  Activity: Toxic
[28]
  Activity: Non-toxic
[29]
  Activity: Toxic
[30]
  Activity: Toxic

## CC(C)C[C@H](NC(=O)CN)C(=O)N[C@@H](CCCNC(=N)N)C(=O)N[C@@H](CCCCN)C(=O)N[C@@H](Cc1c[nH]c2ccccc12)C(=O)N[C@@H](CC(C)C)C(=O)N[C@@H](CCCNC(=N)N)C(=O)N[C@@H](CCCCN)C(=O)N[C@@H](Cc1ccccc1)C(=O)NCCCC[C@H](N)C(=O)N[C@@H](CCCCN)C(=O)N[C@@H](Cc1ccccc1)C(=O)N[C@@H](Cc1c[nH]c2ccccc12)C(=O)O (H-GLRKWLRKF[εLys]KFW-OH)
[5]
  MIC: 8.9 µM
[1]
  MIC: 17.9 µM
[8]
  MIC: 17.9 µM
[9]
  MIC: 8.9 µM
[3]
  MIC: 17.9 µM
[12]
  MIC: 35.7 µM
